This is an account of results in patent publication US20050124575A1, “Remedies” (Takara Bio Inc., priority 2002, published 2005).

This series has as its system mouse. Put plainly: Acute toxicity after oral or intraperitoneal administration. The format is in vivo. Particulars: orally or intraperitoneally administered to a mouse at 1 g/kg.

agarose: the acute toxicity entry is listed as “No acute toxicity”.
